We go through two compounds from paper PMC12268261, “The aldehyde (ALD) locus controls C6-aldehyde production in kiwifruit and affects consumer perception of fruit aroma” (Plant Physiology, 2025).

In one assay the target is T1, AcLOX4c-D1 (Actinidia chinensis, UniProt Z9ABF8LHO4).
T1 construct: N-terminal HIS6-MBP fusion (pMAL-c6T), tag kept; E. coli BL21 (DE3) Codon Plus RIL
T1 sequence (Z9ABF8LHO4 57-898): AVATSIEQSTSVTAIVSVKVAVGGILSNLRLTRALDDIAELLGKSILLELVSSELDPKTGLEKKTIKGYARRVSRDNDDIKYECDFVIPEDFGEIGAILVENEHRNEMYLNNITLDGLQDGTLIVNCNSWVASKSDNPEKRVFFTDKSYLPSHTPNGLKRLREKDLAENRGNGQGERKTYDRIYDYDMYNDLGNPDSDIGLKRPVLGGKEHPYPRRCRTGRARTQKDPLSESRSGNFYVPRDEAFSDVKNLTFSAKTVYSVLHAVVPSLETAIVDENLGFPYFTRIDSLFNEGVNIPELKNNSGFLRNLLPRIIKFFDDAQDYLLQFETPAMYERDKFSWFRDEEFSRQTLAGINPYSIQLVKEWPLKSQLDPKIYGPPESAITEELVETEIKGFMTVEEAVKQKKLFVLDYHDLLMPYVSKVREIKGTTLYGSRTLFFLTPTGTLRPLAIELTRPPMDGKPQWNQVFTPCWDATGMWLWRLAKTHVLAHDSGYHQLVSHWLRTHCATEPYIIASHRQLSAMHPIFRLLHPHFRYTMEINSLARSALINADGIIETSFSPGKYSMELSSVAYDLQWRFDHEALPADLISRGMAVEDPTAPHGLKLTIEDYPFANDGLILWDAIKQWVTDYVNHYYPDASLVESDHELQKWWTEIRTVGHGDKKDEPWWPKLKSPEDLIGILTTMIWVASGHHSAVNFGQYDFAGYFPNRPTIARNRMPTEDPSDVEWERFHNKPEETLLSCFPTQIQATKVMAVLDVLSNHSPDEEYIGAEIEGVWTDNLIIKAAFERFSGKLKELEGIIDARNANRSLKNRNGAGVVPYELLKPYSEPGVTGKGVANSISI
Description: spectrophotometric, product formation at […] nm. Type of assay: biochemical. As to conditions: air-saturated 30 mM Tris-Cl, pH 7.5; substrate inhibition at >50 µM; read-out: Km-app /.

In a further assay the target is T2, AcLOX4a-D1 (Actinidia chinensis, UniProt A0A2R6P8A4).
T2 construct: gene CEY00_Acc32486; N-terminal HIS6-MBP fusion (pMAL-c6T), tag kept; E. coli BL21 (DE3) Codon Plus RIL
T2 sequence (A0A2R6P8A4 entry or part of it): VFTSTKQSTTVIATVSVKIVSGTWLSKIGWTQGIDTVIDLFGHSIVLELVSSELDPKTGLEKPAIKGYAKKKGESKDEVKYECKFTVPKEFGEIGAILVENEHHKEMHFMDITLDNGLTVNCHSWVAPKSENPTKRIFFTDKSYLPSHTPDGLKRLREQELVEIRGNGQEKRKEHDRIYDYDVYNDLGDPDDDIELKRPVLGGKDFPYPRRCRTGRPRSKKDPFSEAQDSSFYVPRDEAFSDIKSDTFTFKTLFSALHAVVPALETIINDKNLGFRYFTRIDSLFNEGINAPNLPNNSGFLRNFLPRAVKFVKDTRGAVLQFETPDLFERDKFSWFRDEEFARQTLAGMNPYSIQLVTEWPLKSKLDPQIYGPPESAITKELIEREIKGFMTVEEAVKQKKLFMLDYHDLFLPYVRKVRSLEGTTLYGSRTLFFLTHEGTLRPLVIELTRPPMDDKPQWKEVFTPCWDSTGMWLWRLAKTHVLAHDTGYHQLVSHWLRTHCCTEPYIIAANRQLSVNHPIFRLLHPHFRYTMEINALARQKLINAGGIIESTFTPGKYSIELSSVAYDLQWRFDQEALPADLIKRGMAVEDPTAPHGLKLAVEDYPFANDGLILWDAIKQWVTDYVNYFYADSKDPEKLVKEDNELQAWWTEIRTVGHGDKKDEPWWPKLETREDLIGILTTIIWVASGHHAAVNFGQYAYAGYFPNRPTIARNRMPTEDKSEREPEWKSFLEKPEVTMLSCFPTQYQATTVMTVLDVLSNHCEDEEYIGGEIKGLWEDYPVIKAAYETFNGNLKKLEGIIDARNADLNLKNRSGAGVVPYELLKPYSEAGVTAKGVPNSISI
Description: spectrophotometric, product formation at […] nm. Format: biochemical. As to conditions: air-saturated 30 mM Tris-Cl, pH 7.5, read-out: Km-app /.

SMILES strings stand for the structures. Like-named read-outs stand apart in the source and are kept apart here.

With `CCCCC/C=C\C/C=C\CCCCCCCC(=O)O` [linoleic acid], the Km was 59.2 µM at AcLOX4c-D1 and 193 µM at AcLOX4a-D1 (substrate inhibition at >125 µM).

`CC/C=C\C/C=C\C/C=C\CCCCCCCC(=O)O` [α-linolenic acid]: the Km at AcLOX4a-D1 was found to be 133 µM.
